Laboratory results published in patent publication US7179613B2, “Methods of screening for a candidate modulator of glucokinase” (Vanderbilt University, priority 2003, dated 2007).
Residue numbers refer to the chain shown, from its start. Names and notes keep the numbering of the source.

Columns and labels:
βTC3 cells = experiment: NO production in βTC3 cells loaded with DAF-FM (confocal microscopy); assay type: cell-based; conditions: βTC3 cells starved 4 h, 100 nM insulin vs untreated cells
Procedure: (§1) Cell culture. βTC3 cells were cultured as described (Rizzo et al., 2002) and were transferred to media containing 1 g/L glucose overnight prior to observation. […] For FRAP, CFP-GK-YFP FRET, and nitrosylation experiments, DNA plasmids containing GK-YFP constructs, proinsulin-CFP, or CFP-GK-YFP were introduced by electroporation prior to seeding as previously described (Rizzo et al., 2002). For studies requiring co-transfection, plasmid DNA encoding the indicated constructs were transfected using either a ratio of (2 μg nNOS-CFP:1 μg GK-YFP:6 μl FUGENE (Roche Applied Science)) or of (1 μg nNOS-CFP-nuc:2 μg GK-YFP:6 μl FUGENE). Transfection was for 4 h in serum-free media, followed by replacement with low-glucose media. Observation took place the following day.
Microscopy. βTC3 cells were labeled with 5 μM DAF-FM diacetate (Molecular Probes) for 25 min at 25° C. in BSA free BMHH. Observation was with 488 nm excitation and 505–530 nm collection by laser scanning confocal microscopy (Zeiss LSM510). During observation, cells were heated to 32° C. using a Bioptechs Delta T system. […] Statistical significance (p<0.05 by ANOVA or t-test as appropriate) is denoted by * and was determined from at least three granules in the same region or at least three cells for the FRET studies as compared to pre-treatment FRET ratios. […]

GK [1] = experiment: Detection of S-nitrosylated GK (biotinylation, neutravidin-agarose or immunoprecipitation, Western blot); assay type: cell-based; conditions: for Nitrosylated GK in neutravidin precipitates: βTC3 cell lysates, insulin alone or L-NAME in addition to insulin; for S-nitrosylation of mutant GK-YFP: mutant GK-YFP constructs expressed in βTC3 cells
Procedure: Detection of nitrosylated proteins. S-nitrosylated proteins were biotinylated and isolated from cell lysates using the protocol described (Jaffrey et al., 2001). Briefly, cells were lysed in HEN buffer (250 mM Hepes pH7.7, 1 mM EDTA, 0.1 mM neocuproine) using 0.5% triton X-100 and 0.5% Cholate prior to protection of free cysteines with methyl methanethiosulfonate (Pierce) and derivatization of S-nitrosylated cysteines with ascorbic acid and biotin-HPDP (Pierce). Biotinylated proteins were either isolated by binding to neutravidin-agarose (Pierce), followed by 5 washes with a high salt buffer (20 mM Hepes pH 7.7, 600 mM NaCl, 1 mM EDTA and 0.5% Triton X-100) and elution in HNE buffer (20 mM Hepes pH 7.7, 100 mM NaCl, 1 mM EDTA) plus 100 mM 2-mercaptoethanol. Alternatively, GK-YFPs were isolated by immunopreciptation with A.V. Peptide Antibody (BD BioSciences Clontech) preconjugated to IgG agarose (Sigma). Western blots were then performed on eluted proteins to detect GK and nitrosylated proteins.

GK [2] = experiment: Intramolecular FRET of CFP-GK-YFP (GK conformation); assay type: cell-based; conditions: 5 min; for Insulin-stimulated changes in FRET of mutant CFP-GK-YFP: 100 nM insulin
Procedure: as §1
(§2) Microscopy. βTC3 cells were labeled with 5 μM DAF-FM diacetate (Molecular Probes) for 25 min at 25° C. in BSA free BMHH. Observation was with 488 nm excitation and 505–530 nm collection by laser scanning confocal microscopy (Zeiss LSM510). During observation, cells were heated to 32° C. using a Bioptechs Delta T system. FRAP and intramolecular FRET measurements were performed on cultured βTC3 cells as previously described (Rizzo et al., 2002). Statistical significance (p<0.05 by ANOVA or t-test as appropriate) is denoted by * and was determined from at least three granules in the same region or at least three cells for the FRET studies as compared to pre-treatment FRET ratios. Data shown is representative of at least 3 independent trials. Observation of nNOS-CFP-nuc and GK-YFP were performed using the same filter settings as the FRAP measurements. FRET between nNOS-CFP and GK-YFP was observed using 864 nm two-photon excitation along with a KP700/514 main beam splitter and standard CFP and YFP collection using a 40×, 1.3NA F-FLUAR oil immersion objective lens. For the FRET measurements, the temperature was maintained at 37° C. using a Zeiss S-M incubator controlled by the CTI temperature regulator along with humidification and an objective heater.

[3] = tested on: interaction between nNOS and GK; experiment: FRET between nNOS-CFP and GK-YFP in living cells (two-photon microscopy); assay type: cell-based, rat; conditions: insulin 100 nM
Procedure: as §1
Generation of constructs. […]
Microscopy. βTC3 cells were labeled with 5 μM DAF-FM diacetate (Molecular Probes) for 25 min at 25° C. in BSA free BMHH. […] Statistical significance (p<0.05 by ANOVA or t-test as appropriate) is denoted by * and was determined from at least three granules in the same region or at least three cells for the FRET studies as compared to pre-treatment FRET ratios. […]

GK association with nNOS [4] = target: T1, GK association with nNOS (Mus musculus, UniProt P52792); assay type: binding; conditions: 1 mM DEANO in PBS, 37° C., 10 min
T1 construct: the inventors immunoprecipitated endogenous GK from cell lysates; endogenous in cells; host or cells: βTC3 cells
T1 sequence (P52792 1-465): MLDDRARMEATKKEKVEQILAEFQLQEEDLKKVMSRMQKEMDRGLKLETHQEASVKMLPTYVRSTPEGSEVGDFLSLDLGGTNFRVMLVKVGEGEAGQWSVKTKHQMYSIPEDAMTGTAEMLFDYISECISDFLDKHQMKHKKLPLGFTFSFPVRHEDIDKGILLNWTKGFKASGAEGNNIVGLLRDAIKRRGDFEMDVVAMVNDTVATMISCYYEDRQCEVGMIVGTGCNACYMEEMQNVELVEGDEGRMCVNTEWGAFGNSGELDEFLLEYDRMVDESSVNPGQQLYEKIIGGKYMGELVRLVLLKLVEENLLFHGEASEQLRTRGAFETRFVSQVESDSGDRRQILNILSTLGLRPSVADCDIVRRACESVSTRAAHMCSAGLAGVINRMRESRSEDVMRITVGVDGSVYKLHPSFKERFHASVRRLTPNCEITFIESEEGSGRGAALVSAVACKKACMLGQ

GK association with nNOS [5] = assay type: binding; conditions: 1 mM DEANO in PBS, 37° C., 10 min
GK [6] = experiment: FRAP of GK-YFP to CFP-labeled insulin granules (GK association with secretory granules); assay type: cell-based; conditions: for Insulin-stimulated FRAP of mutant GK-YFP to CFP labeled granules: βTC3 cells, mutant GK-YFP and proinsulin-CFP
Procedure: as §1, §2

insulin was tested, and the “NO production (fluorescence of DAF-FM)” value (βTC3 cells) was “rapid increase in the fluorescence of DAF-FM”, the “Nitrosylated GK in neutravidin precipitates” value (GK [1]) was “detected” and the “FRET ratio between CFP and YFP on opposing ends of GK” value (GK [2]; βTC3 cells, insulin 100 nM) was “decreases”. The “FRET between nNOS-CFP and GK(C371S)-YFP” value [3] was “increased” and the “FRET between nNOS-CFP and GK-YFP” value [3] was “decrease”.

For `CCN(CC)/[N+]([O-])=N/O.CCNCC` [DEANO, diethylamine nitric oxide], the “Elution of nNOS from endogenous GK and GK-YFP precipitates” value (GK association with nNOS [4]) was “resulted in elution of nNOS” and the “Elution of nNOS from GK(C371S)-YFP precipitates” value (GK association with nNOS [5]) was “not from GK(C371S)-YFP precipitates”.

In the case of `COC(=O)[C@@H](N)CCCNC(=N)N[N+](=O)[O-]` [L-NAME, N^G-nitro-L-arginine-methyl ester, reference compound], the “Effect on insulin-stimulated GK-YFP FRAP” value (GK [6]; L-NAME 5 mM, 10 min pretreatment, then insulin 100 nM, 5 min) is reported as “blocked the stimulatory effects of insulin on GK-YFP FRAP”, the “Glucose stimulated activation of GK FRAP and FRET” value (GK [6]; treatment with L-NAME, data not shown) is reported as “sensitive” and the “Nitrosylated GK in neutravidin precipitates” value (GK [1]) is reported as “not”. For the same molecule, the “Effect on insulin-induced decrease of the CFP-GK-YFP FRET ratio” value (GK [2]; L-NAME 5 mM, 10 min before insulin 100 nM) was “prevented the decrease in the FRET ratio”.

`CC(=O)N[C@H](C(=O)O)C(C)(C)SN=O` [SNAP, S-nitroso-N-acetylpenicillamin] was tested, and the “Reversal of NOS inhibition in GK-YFP FRAP” value (GK [6]; SNAP 100 μM, 1 min, after L-NAME and insulin) was “effects of NOS inhibition were reversed”.

B1: GK-C371S: glucokinase with cysteine 371 mutated to serine; recombinant His-tagged, or YFP-tagged in cells (protein, UniProt P35557 1-465, looked up, variant C371S)
Hexokinase-4: MLDDRARMEAAKKEKVEQILAEFQLQEEDLKKVMRRMQKEMDRGLRLETHEEASVKMLPTYVRSTPEGSEVGDFLSLDLGGTNFRVMLVKVGEGEEGQWSVKTKHQMYSIPEDAMTGTAEMLFDYISECISDFLDKHQMKHKKLPLGFTFSFPVRHEDIDKGILLNWTKGFKASGAEGNNVVGLLRDAIKRRGDFEMDVVAMVNDTVATMISCYYEDHQCEVGMIVGTGCNACYMEEMQNVELVEGDEGRMCVNTEWGAFGDSGELDEFLLEYDRLVDESSANPGQQLYEKLIGGKYMGELVRLVLLRLVDENLLFHGEASEQLRTRGAFETRFVSQVESDTGDRKQIYNILSTLGLRPSTTDCDIVRRASESVSTRAAHMCSAGLAGVINRMRESRSEDVMRITVGVDGSVYKLHPSFKERFHASVRRLTPSCEITFIESEEGSGRGAALVSAVACKKACMLGQ
modifications: His tag or YFP fusion
notes: glucokinase with cysteine 371 mutated to serine; recombinant His-tagged, or YFP-tagged in cells
B1 was tested, and the “Insulin-stimulated FRAP of mutant GK-YFP to CFP labeled granules” value (GK [6]) was “stopped insulin-stimulated FRAP”, the “S-nitrosylation of mutant GK-YFP” value (GK [1]) was “eliminated GK nitrosylation” and the “Insulin-stimulated changes in FRET of mutant CFP-GK-YFP” value (GK [2]; βTC3 cells) was “stopped”.

B2: C364S: glucokinase with cysteine 364 mutated to serine, YFP-tagged construct (protein, UniProt P35557 1-465, looked up, variant C364S)
Hexokinase-4: B1 Hexokinase-4 with C364S, S371C
modifications: YFP fusion
notes: glucokinase with cysteine 364 mutated to serine, YFP-tagged construct
In the case of B2, the “Insulin-stimulated FRAP of mutant GK-YFP to CFP labeled granules” value (GK [6]) is reported as “did not have a significant effect”, the “S-nitrosylation of mutant GK-YFP” value (GK [1]) is reported as “slight decrease in the amount of nitrosylated GK” and the “Insulin-stimulated changes in FRET of mutant CFP-GK-YFP” value (GK [2]; βTC3 cells) is reported as “did not have a significant effect”.
